{
  "source": "patent US8609718B2",
  "about": "“Pharmaceutical composition used in treatment of hyperproliferative skin conditions and malignant melanomas comprising pachastrissamine as active ingredient” (Catholic University Industry Academy Cooperation Foundation, priority 2009, dated 2013)",
  "key": {"[1]": {"test_system": "A375 cell line", "experiment": "Cell counting by hemocytometer, trypan blue exclusion, A375", "format": "cell-based", "conditions": "24 hours", "protocol": "A HaCaT cell line was cultured in the same manner as described in Example 1. The cultured HaCaT cell line was plated onto a 60 mm plate at a concentration of 5×10^4 cells/well, and cultured in a CO2 incubator (37° C., 5%) for 24 hours. The cultured cells in respective plates were treated with pachastrissamine at a concentration of 10 μg/ml, and cultured in a CO2 incubator (37° C., 5%) for 24, 36, and 48 hours, respectively. After the culturing, the cells were washed with PBS, treated with trypsin-EDTA, and completely detached from the plate. Then, a hemocytometer was used to count the cells through trypan blue exclusion.\nHaCaT, B16F10 and A375 cell lines were cultured in the same manner as described in Example 1. The cultured HaCaT cell line was plated onto a 60 mm plate at a concentration of 5×10^4 cells/well, and cultured in a CO2 incubator (37° C., 5%) for 24 hours. The cultured respective cells were divided into 4 groups. […] These groups were cultured in a CO2 incubator (37° C., 5%) for 24 hours, and then the number of cells were measured in the same manner as described in Example 2-2."}, "[2]": {"test_system": "HaCaT cell", "experiment": "Phase-contrast microscope morphology analysis of surviving cells", "format": "cell-based, human", "conditions": "HaCaT, 24 hours", "protocol": "HaCaT, B16F10 and A375 cell lines were cultured in the same manner as described in Example 1. The cultured HaCaT cell line was plated onto a 60 mm plate at a concentration of 5×10^4 cells/well, and cultured in a CO2 incubator (37° C., 5%) for 24 hours. The cultured respective cells were divided into 4 groups. One group was added with only pachastrissamine (PA) at a concentration of 10 μg/ml; another group was added with lithium chloride (apoptosis inhibiting material) (at a final concentration of 300 nM) as well as pachastrissamine at a concentration of 10 μg/ml (PA+Li); and a third group was added with only lithium chloride (Li). The last group was a negative control group (Con) and was added with nothing. These groups were cultured in a CO2 incubator (37° C., 5%) for 24 hours, and then the number of cells were measured in the same manner as described in Example 2-2.\nThe four groups of HaCaT cell samples were washed with PBS, and then surviving cells were subjected to morphology analysis through a phase-contrast microscope (see FIG. 2f)."}, "[3]": {"test_system": "AKT", "experiment": "Western blotting of AKT phosphorylation", "format": "cell-based", "conditions": "HaCaT, B16F10, A375, 10 μg/ml pachastrissamine, FIGS. 3A, 3B", "protocol": "HaCaT, B16F10 and A375 cell lines were cultured in the same manner as described in Example 1. […] 30 minutes later, and 60 minutes later, each of the cell lines was resuspended in RIPA buffer [12 mM EDTA, 137 mM NaCl, 20 mM Tris-HCl (pH 8.0), 1 mM Na3VO4 (Sigma-Aldrich, USA) 10 mM NaF (Sigma), 1 mM PMSF (Sigma), 1% Triton X-100, 10% glycerol, protease inhibiting cocktail (Roche, Germany)], and then put on ice for 30 minutes so that the cells can be completely lysed. The lysate was centrifuged at 14000 rpm for 30 minutes, and the supernatant was collected. A BCA protein analysis kit (Pierce, Rockford, Ill.) was used to determine the concentration of each sample, and the sample was subjected to electrophoresis (SDS-PAGE). Western blotting was carried out on the protein isolated by the electrophoresis. After electrophoresis of the sample, the protein was transferred to a polyvinylidene fluoride membrane (Pall Corporation). Then, after blocking the membrane at room temperature for one hour using 5% BSA solution (Amresco, USA), it was treated with primary antibodies and reaction was carried out for 12 hours at 4° C. The primary antibodies were AKT antibody and Actin antibody (Cell Signaling Technology, Beverly, Mass.), which are antibodies associated in cell proliferation-related signaling. After reaction with primary antibodies, it was washed for about 30 minutes and further reacted for 1 hour at room temperature by treating with HRP-conjugated secondary antibodies. Then, after washing sufficiently for over 30 minutes, protein was identified using an ECL detection kit (intron Biotechnology)."}, "[4]": {"test_system": "ERK", "experiment": "Western blotting of ERK activity (pERK) in HaCaT", "format": "cell-based, human", "conditions": "pachastrissamine 10 μg/ml, U0126 20 nM, 30 minutes, FIG. 3C", "protocol": "A HaCaT cell line was cultured in the same manner as described in Example 1. […] The last group was a negative control group (−) and was added with nothing."}, "[5]": {"test_system": "ERK", "experiment": "Western blotting of EGF-induced ERK activity in HEK293T", "format": "cell-based", "conditions": "with 100 μg/ml of EGF, FIG. 3D", "protocol": "In the same manner, in a sample of HEK293T (Kidney epithelial cell) cell line treated with pachastrissamine and 100 μg/ml of EGF (epidermal growth factor), ERK activity was determined (see FIG. 3D)."}, "[6]": {"test_system": "MEK", "experiment": "Western blotting of MEK activity (caMEK or N-Ras/H-Ras over-expression) in HaCaT", "format": "cell-based, human", "conditions": "HaCaT with caMEK or N-Ras/H-Ras over-expression; FIGS. 3E, 3F", "protocol": "In the same manner, MEK(caMEK) continuously activated in the HaCaT cell line was over-expressed so as to activate ERK in a lower signaling pathway of MEK. The HaCaT cell line whose ERK was activated by MEK was treated with pachastrissamine and U0126 and PD98059 (ERK inhibitors). Then, western blotting was carried out using anti-pMEK, anti-MEK, anti-pEKR, anti-EKR, and anti-actin antibodies so as to carry out comparative analysis (see FIG. 3E).\nFurther, in the same manner, two DNAs of N-Ras and H-Ras, in a previous step of MEK/ERK signal transduction, were over-expressed through transfection while a HaCaT cell line was cultured. Then, after treatment with pachastrissamine and phytosphingosine, western blotting was carried out using anti-pMEK, and anti-MEK antibodies so as to carry out comparative analysis of MEK activity (see FIG. 3F)."}},
  "note": "“Also recorded” adds a separate entry of the source.",
  "data": [
    {"smiles": "CCCCCCCCCCCCCC[C@@H]1OC[C@H](N)[C@@H]1O", "note": "[pachastrissamine]", "values": [
      {"measurement": "number of cells compared to no treatment", "setting": "[1]; 10 μg/ml, FIGS. 2C, 2D", "result": "the number of cells was decreased"},
      {"measurement": "number of cells with lithium chloride as well as pachastrissamine, compared to only pachastrissamine", "setting": "[1]; pachastrissamine 10 μg/ml + lithium chloride 300 nM (PA+Li)", "result": "the number of cells was higher"},
      {"measurement": "number of surviving cells compared to negative control group", "setting": "[2]; 10 μg/ml, phase-contrast microscope, FIG. 2f", "result": "the number of surviving cells was significantly reduced"},
      {"measurement": "cell division extent increased by lithium chloride, effect of pachastrissamine", "setting": "[2]; pachastrissamine 10 μg/ml + lithium chloride 300 nM", "result": "inhibited"},
      {"measurement": "phosphorylation of AKT after 30 minutes", "setting": "[3]; 5 μg/ml phytosphingosine, 30 minutes", "result": "reduction of phosphorylation of AKT"},
      {"measurement": "degree of AKT phosphorylation after 60 minutes", "setting": "[3]; 60 minutes", "result": "increased"},
      {"measurement": "ERK activation (phosphorylation of ERK)", "setting": "[4]", "result": "almost completely inhibited the phosphorylation of ERK; also recorded: reduction of ERK activation"},
      {"measurement": "ERK activity caused by EGF", "setting": "[5]", "result": "almost perfectly inhibit the ERK activity caused by EGF"},
      {"measurement": "MEK activity (upper signal of ERK)", "setting": "[6]", "result": "inhibition effect on MEK"}
    ]}
  ]
}
